Data set [1] can be described thus: Aqueous solubility of the compound. The note with it: aqueous medium (not further specified).
A further data set addresses D(2) dopamine receptor (Rattus norvegicus, UniProt P61169). As to the kind of experiment: Displacement of [3H]Spiperone from D2 receptor in Sprague-Dawley rat caudate-putamen. The class given is tissue-based.
For the next data set, the target named is D(1A) dopamine receptor (Rattus norvegicus, UniProt P18901). The data set can be described thus: Displacement of [3H]SCH23390 from D1-like receptor in Sprague-Dawley rat striatum.

Each structure is given as a SMILES string.

Chain of D(1A) dopamine receptor (P18901 whole entry): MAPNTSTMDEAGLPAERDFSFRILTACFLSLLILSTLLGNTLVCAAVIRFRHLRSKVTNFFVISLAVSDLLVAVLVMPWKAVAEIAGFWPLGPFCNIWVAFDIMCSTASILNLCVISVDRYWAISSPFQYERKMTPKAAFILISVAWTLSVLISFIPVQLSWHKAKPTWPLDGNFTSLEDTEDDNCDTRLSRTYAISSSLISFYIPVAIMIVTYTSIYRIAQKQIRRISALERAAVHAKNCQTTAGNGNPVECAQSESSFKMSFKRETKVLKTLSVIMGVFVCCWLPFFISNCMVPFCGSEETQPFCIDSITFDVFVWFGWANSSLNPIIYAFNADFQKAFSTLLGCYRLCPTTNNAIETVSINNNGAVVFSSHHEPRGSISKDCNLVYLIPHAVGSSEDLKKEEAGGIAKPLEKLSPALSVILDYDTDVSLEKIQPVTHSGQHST
Chain of D(2) dopamine receptor (P61169 whole entry): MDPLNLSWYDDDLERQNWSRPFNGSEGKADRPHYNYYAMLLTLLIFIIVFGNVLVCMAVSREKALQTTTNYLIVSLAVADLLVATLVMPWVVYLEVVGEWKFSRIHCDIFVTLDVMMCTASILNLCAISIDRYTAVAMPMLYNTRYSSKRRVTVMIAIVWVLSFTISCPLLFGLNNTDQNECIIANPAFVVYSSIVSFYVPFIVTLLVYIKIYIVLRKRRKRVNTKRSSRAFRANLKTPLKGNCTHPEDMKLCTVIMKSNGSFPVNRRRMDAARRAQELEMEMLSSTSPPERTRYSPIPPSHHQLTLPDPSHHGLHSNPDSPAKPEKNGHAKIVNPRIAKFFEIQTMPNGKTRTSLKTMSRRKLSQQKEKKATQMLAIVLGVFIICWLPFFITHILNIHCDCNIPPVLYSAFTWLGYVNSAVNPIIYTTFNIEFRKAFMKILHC

`CCCN(CC[C@H]1CC[C@H](NC(=O)c2ccc3ccccc3c2)CC1)[C@H]1CCc2nc(N)sc2C1.Cl.Cl` yielded a solubility in data set [1] of 100 mg/mL.

The compound `CCCN(CC[C@H]1CC[C@H](NC(=O)/C=C/c2ccccc2)CC1)[C@H]1CCc2nc(N)sc2C1` came in with a Ki on D(2) dopamine receptor of 0.33 µM.

On D(1A) dopamine receptor, `CCCCN(CC[C@H]1CC[C@H](NC(=O)c2ccc3ccccc3c2)CC1)[C@H]1CCc2nc(N)sc2C1` yielded an inhibition constant (Ki) of 5.4 µM.

In turn, `CC(C)CCN(CC[C@H]1CC[C@H](NC(=O)c2ccc3ccccc3c2)CC1)[C@H]1CCc2nc(N)sc2C1` gave a Ki at D(1A) dopamine receptor of 13 µM.

The compound `Nc1nc2c(s1)C[C@@H](NCC[C@H]1CC[C@H](NC(=O)c3ccc4ccccc4c3)CC1)CC2` had an inhibitory constant (Ki) at D(1A) dopamine receptor of 64 µM. This Ki lies about 4.9-fold higher than the previous one.

As to `COc1ccc2c(c1)CC[C@@H]1CN(CC[C@H]3CC[C@H](NC(=O)c4ccc5ccccc5c4)CC3)CCN21`, the inhibition constant Ki is more than 50 µM on D(1A) dopamine receptor and more than 10 µM on D(2) dopamine receptor.

The compound `CCCN[C@H]1CCc2nc(N)sc2C1` [PRAMIPEXOLE] gave a Ki on D(1A) dopamine receptor of more than 100 µM.

These data come from ChEMBL document CHEMBL1140107, “Design, synthesis, and evaluation of potent and selective ligands for the dopamine 3 (D3) receptor with a novel in vivo behavioral profile” (J Med Chem, 2008).
